Assay type in all cases: in vivo, BALB/c mice
For assay [1], the system named is anti-OVA-specific IgG2a subclass antibody. The experiment in a line: Adjuvant activity test: anti-OVA-specific IgG2a subclass antibody in serum of OVA-immunized mice (ELISA). As to conditions: after secondary immunization, serum 2 weeks later; OVA 5 μg + compound 0.256 μmol in 5% αCD-added saline (Addavax mixed with saline at 1:1), dorsal-subcutaneous; compared to OVA single administration group. The protocol: (§1) 8-Week-old female BALB/c mice were divided into groups (N=6), and each group was primarily immunized by dorsal-subcutaneous administration of (1) ovalbumin (OVA) (5 μg) dissolved in saline as an antigen (OVA single administration group), (2) OVA 5 μg and Addavax™ (mixed with saline at 1:1) dissolved in saline (Addavax™ administration group) as positive control adjuvant, (3) OVA 5 μg and SZ137 0.256 μmol dissolved or dispersed in 5% α-cyclodextrin (hereinafter to be simply referred to as αCD)-added saline (SZ137 administration group), (4) OVA (5 μg) and SZ138 (0.256 μmol) dissolved or dispersed in 5% αCD-added saline (SZ138 administration group), (5) OVA (5 μg) and SZ142 (0.256 μmol) dissolved or dispersed in 5% αCD-added saline (SZ142 administration group), (6) OVA (5 μg) and SZ144 (0.256 μmol) dissolved or dispersed in 5% αCD-added saline (SZ144 administration group), (7) OVA (5 μg) and SZ145 (0.256 μmol) dissolved or dispersed in 5% αCD-added saline (SZ145 administration group), (8) OVA (5 μg) and SZ146 (0.256 μmol) dissolved or dispersed in 5% αCD-added saline (SZ146 administration group), (9) OVA (5 μg) and SZ147 (0.256 μmol) dissolved or dispersed in 5% αCD-added saline (SZ147 administration group), (10) OVA (5 μg) and SZ148 (0.256 μmol) dissolved or dispersed in 5% αCD-added saline (SZ148 administration group), each per mouse. Two week later, the secondary immunization was carried out by dorsal-subcutaneous administration of solutions or dispersions similar to those of the above-mentioned (1)-(10) again. Two weeks from the secondary immunization, the whole blood was extracted under anesthesia, and the obtained serum sample was measured for anti-OVA-specific IgG1 subclass antibody, anti-OVA-specific IgG2a subclass antibody, and anti-OVA-specific IgE antibody.
(§2) The measurement method of the anti-OVA-specific IgG1 subclass antibody and anti-OVA-specific IgG2a subclass antibody in Experimental Example 1 and the following Experimental Examples 2-10 is as follows.
(§3) To a 96 well plate was added 5 μg/ml OVA at 100 µl/well, and the mixture was incubated at 4° C. overnight. After incubation, the mixture was washed three times with 200 μl of PBS-T (PBS (phosphate buffered saline)+0.05% (v/v) Tween 20) per well, and blocked with 100 μl of 5% FCS (fetal calf serum)/PBS solution per well at room temperature for 1-2 hr. Thereafter, the mixture was washed three times with PBS-T (200 μl/well), a diluted serum sample (100 l/well) or the same amount of 5% FCS/PBS solution as a control was added, and the mixture was incubated at 37° C. for 1 hr. To calculate concentration of the antibody, the standard of an anti-OVA-specific IgG1 subclass antibody diluted with 2% FCS/PBS solution was added at 100 ng/ml, 50 ng/ml, 25 ng/ml, 12.5 ng/ml, 6.25 ng/ml, 3.125 ng/ml, 1.56 ng/ml, 0.781 ng/ml, 0.391 ng/ml, 0.195 ng/ml, 0.098 ng/ml, 0 ng/ml, per 1 well. When an anti-OVA-specific IgG2a subclass antibody was measured, the standard of an anti-OVA-specific IgG2a subclass antibody was added at 50 ng/ml, 25 ng/ml, 12.5 ng/ml, 6.25 ng/ml, 3.125 ng/ml, 1.56 ng/ml, 0.781 ng/ml, 0.391 ng/ml, 0.195 ng/ml, 0.098 ng/ml, 0.049 ng/ml, 0 ng/ml, per 1 well. Thereafter, similar to the samples, the mixture was washed five times with PBS-T (200 μl/well), a diluted biotinylated anti-mouse IgG1 antibody and IgG2a antibody were added (100 μl/well), and the mixture was incubated at 37° C. for 45 min. Thereafter, the mixture was washed five times with PBS-T (200 μl/well), a diluted anti-biotin-HRP antibody was added (100 μl/well), and the mixture was incubated at 37° C. for another 30 min. Thereafter, the mixture was washed five times with PBS-T (200 μl/well), TMB substrate solution was added (100 μl/well), and the mixture was incubated at room temperature for 10-15 min. Thereafter, a reaction quenching liquid (2N sulfuric acid solution) was added (50 l/well) to discontinue a color developing reaction, and the absorbance (OD Value=450 nm) was measured by a microplate reader. […]

Assay [2] has as its system anti-OVA-specific IgG1 subclass antibody. Briefly: Adjuvant activity test: anti-OVA-specific IgG1 subclass antibody in serum of OVA-immunized mice (ELISA). The note with it: after secondary immunization, serum 2 weeks later; OVA 5 μg + compound 0.256 μmol in 5% αCD-added saline (Addavax mixed with saline at 1:1), dorsal-subcutaneous; compared to OVA single administration group. As to the method: as §1, §2, §3
Background: ELISA stands for enzyme-linked immunosorbent assay.

For assay [3], the system named is anti-OVA-specific IgG2a subclass antibody. Briefly: Adjuvant activity test: anti-OVA-specific IgG2a subclass antibody in serum of OVA-immunized mice (ELISA). As to conditions: after primary immunization, serum 2 weeks later; OVA 5 μg + compound 0.256 μmol in 5% αCD-added saline (Addavax mixed with saline at 1:1), dorsal-subcutaneous; compared to OVA single administration group.

Assay [4] concerns anti-OVA-specific IgG1 subclass antibody. Briefly: Adjuvant activity test: anti-OVA-specific IgG1 subclass antibody in serum of OVA-immunized mice (ELISA). As to conditions: after primary immunization, serum 2 weeks later; OVA 5 μg + compound 0.256 μmol in 5% αCD-added saline (Addavax mixed with saline at 1:1), dorsal-subcutaneous; compared to OVA single administration group.

Molecules are shown by their SMILES.

The results in this text go back to US20180311342A1, “IMMUNOSTIMULATING AGENT” (AJINOMOTO CO., INC., priority 2017, published 2018).

As to `CCCCCCCCCCCCCCCCCCCCCC(=O)N[C@@H](C)C(=O)NCCCCCCCCCCCC` [SZ145, N-[(1S)-2-(dodecylamino)-1-methyl-2-oxo-ethyl]docosanamide], the “anti-OVA-specific IgG2a subclass antibody production” value in assay [1] is “showed a tendency to increase”. The “anti-OVA-specific IgG1 subclass antibody production” value in assay [2] was “showed a tendency to increase”.

For `CCCCCCCCCCCCCCCCCCCCCC(=O)NC(C)(C)C(=O)NCCCCCCCCCCCC` [SZ146, N-[2-(dodecylamino)-1,1-dimethyl-2-oxo-ethyl]docosanamide], in assay [1], the “anti-OVA-specific IgG2a subclass antibody production” value is reported as “showed a tendency to increase”. Besides, the “anti-OVA-specific IgG1 subclass antibody production” value in assay [2] is recorded as “showed a tendency to increase”.

Turning to `CCCCCCCCCCCCCCCCCCCCCC(=O)NCCC(=O)NCCCCCCCCCCCC` [SZ147, N-[3-(dodecylamino)-3-oxo-propyl]docosanamide], the “anti-OVA-specific IgG2a subclass antibody production” value in assay [1] is “showed a tendency to increase”. Moreover, the “anti-OVA-specific IgG1 subclass antibody production” value in assay [2] was “showed a tendency to increase”.

Consider `CCCCCCCCCCCCCCCCOC(=O)N[C@@H](CCCNC(=N)N)C(=O)NCCCCCCCCCCCC.Cl` [SZ150, Hexadecyl N-[(1S)-1-(dodecylcarbamoyl)-4-guanidino-butyl]carbamate hydrochloride], for which, in assay [1], the “anti-OVA-specific IgG2a subclass antibody production” value is recorded as “significantly increased”. The “anti-OVA-specific IgG1 subclass antibody production” value in assay [2] is listed as “significantly increased”.

As to `CCCCCCCCCCCCCCCCCCCCCC(=O)N[C@@H](CCCC)C(=O)NCCCCCCCCCCCC` [SZ155, N-[(1S)-1-(dodecylcarbamoyl)pentyl]docosanamide], the “anti-OVA-specific IgG2a subclass antibody production” value in assay [1] is given as “showed a tendency to increase”. For the same compound, the “anti-OVA-specific IgG1 subclass antibody production” value in assay [2] is reported as “showed a tendency to increase”.

As to `CCCCCCCCCCCCCCCCCCCCCC(=O)N1CCC(C(=O)NCCCCCCCCCCCC)CC1` [SZ156, 1-docosanoyl-N-dodecyl-piperidine-4-carboxamide], the “anti-OVA-specific IgG2a subclass antibody production” value in assay [1] is reported as “showed a tendency to increase”. For the same compound, the “anti-OVA-specific IgG1 subclass antibody production” value in assay [2] is reported as “showed a tendency to increase”.

For `CCCCCCCCCCCCCCCCCCCCCC(=O)N[C@@H](CCCNC(=N)N)C(=O)N(CCCCCCC)CCCCCCC.Cl` [SZ159, N-[(1S)-1-(diheptylcarbamoyl)-4-guanidino-butyl]docosanamide hydrochloride], in assay [1], the “anti-OVA-specific IgG2a subclass antibody production” value is “showed a tendency to increase”. Moreover, the “anti-OVA-specific IgG1 subclass antibody production” value in assay [2] was “showed a tendency to increase”.

`CCCCCCCCCCCCCCCCCCCCCC(=O)N[C@@H](CCCCN)C(=O)NCCCCCCCCCCCC.Cl` [SZ160, N-[(1S)-5-amino-1-(dodecylcarbamoyl)pentyl]docosanamide hydrochloride]: the “anti-OVA-specific IgG2a subclass antibody production” value in assay [1] is “showed a tendency to increase”. Also, the “anti-OVA-specific IgG1 subclass antibody production” value in assay [2] is listed as “showed a tendency to increase”.

As for `CCCCCCCCCCCCCCCCOC(=O)N[C@@H](CCCNC(=N)N)C(=O)NCCCCCC.Cl` [SZ169, Hexadecyl N-[(1S)-4-guanidino-1-(hexylcarbamoyl)butyl]carbamate hydrochloride], the “anti-OVA-specific IgG2a subclass antibody production” value in assay [1] is listed as “tended to increase”. The “anti-OVA-specific IgG1 subclass antibody production” value in assay [2] is “tended to increase”.

With `CCCCCCCCCCCCCCCCCCCCCC(=O)N[C@@H](CCCCNC(=N)N)C(=O)NCCCCCC.Cl` [SZ170, N-[(1S)-5-guanidino-1-(hexylcarbamoyl)pentyl]docosanamide hydrochloride], the “anti-OVA-specific IgG2a subclass antibody production” value in assay [1] was “tended to increase”. The “anti-OVA-specific IgG1 subclass antibody production” value in assay [2] is given as “tended to increase”.

Take `CCCCCCCCCCCCCCCCCCCC(=O)N[C@@H](CCCNC(=N)N)C(=O)NCCCCCCCCCCCC.Cl` [SZ180, N-[(1S)-1-(dodecylcarbamoyl)-4-guanidino-butyl]icosanamide hydrochloride]: the “anti-OVA-specific IgG2a subclass antibody production” value in assay [3] and in assay [1] was “significant enhancement” in each case. Moreover, the “anti-OVA-specific IgG1 subclass antibody production” value in assay [4] and in assay [2] was “significant enhancement” throughout.

On to `CCCCCCCCCCCCCCCC(=O)N[C@@H](CCCNC(=N)N)C(=O)NCCCCCCCC.Cl` [SZ181, N-[(1S)-4-guanidino-1-(octylcarbamoyl)butyl]hexadecanamide hydrochloride], for which the “anti-OVA-specific IgG2a subclass antibody production” value in assay [3] was “a tendency toward increase was found”; in assay [1], “showed a tendency to increase”. For the same compound, the “anti-OVA-specific IgG1 subclass antibody production” value in assay [4] is “a tendency toward increase was found”; in assay [2], “showed a tendency to increase”.

On to `CCCCCCCCCCCCCCCCCC(=O)N[C@@H](CCCNC(=N)N)C(=O)NCCCCCCCC.Cl` [SZ182, N-[(1S)-4-guanidino-1-(octylcarbamoyl)butyl]octadecanamide hydrochloride], for which the “anti-OVA-specific IgG2a subclass antibody production” value in assay [3] was “a tendency toward increase was found”; in assay [1], “showed a tendency to increase”. The “anti-OVA-specific IgG1 subclass antibody production” value in assay [4] was “a tendency toward increase was found”; in assay [2] it was “showed a tendency to increase”.

Turning to `CCCCCCCCCCCCCCCCCCCC(=O)N[C@@H](CCCNC(=N)N)C(=O)NCCCCCCCC.Cl` [SZ183, N-[(1S)-4-guanidino-1-(octylcarbamoyl)butyl]icosanamide hydrochloride], the “anti-OVA-specific IgG2a subclass antibody production” value in assay [3] and in assay [1] was “significant enhancement” each time. Further, the “anti-OVA-specific IgG1 subclass antibody production” value in assay [4] and in assay [2] was “significant enhancement” in each case.

For the compound `CCCCCCCCCCCCCCCCCC(=O)N[C@@H](CCCCNC(=N)N)C(=O)NCCCCCC.Cl` [SZ206, N-[(1S)-1-(hexylcarbamoyl)-5-guanidino-pentyl]octadecanamide hydrochloride], the “anti-OVA-specific IgG2a subclass antibody production” value in assay [3] and in assay [1] was “significant enhancement” each time. In assay [4], the “anti-OVA-specific IgG1 subclass antibody production” value is recorded as “significant enhancement”.
